Data from patent US20090227601A1, “Bradykinin 1 Receptor Antagonists” (Amgen Inc., priority 2005, published 2009).
No end group written: not given here.

Tests used:
[1] = target: T1, hB2 receptor (Homo sapiens, UniProt P30411); test: In vitro Assay of hB2 Receptor Function using Calcium Flux; format: cell-based; details: recombinant CHO cells, antagonist IC50 against agonist at EC80
T1 construct: host or cells: CHO-K1
T1 sequence (P30411 1-391): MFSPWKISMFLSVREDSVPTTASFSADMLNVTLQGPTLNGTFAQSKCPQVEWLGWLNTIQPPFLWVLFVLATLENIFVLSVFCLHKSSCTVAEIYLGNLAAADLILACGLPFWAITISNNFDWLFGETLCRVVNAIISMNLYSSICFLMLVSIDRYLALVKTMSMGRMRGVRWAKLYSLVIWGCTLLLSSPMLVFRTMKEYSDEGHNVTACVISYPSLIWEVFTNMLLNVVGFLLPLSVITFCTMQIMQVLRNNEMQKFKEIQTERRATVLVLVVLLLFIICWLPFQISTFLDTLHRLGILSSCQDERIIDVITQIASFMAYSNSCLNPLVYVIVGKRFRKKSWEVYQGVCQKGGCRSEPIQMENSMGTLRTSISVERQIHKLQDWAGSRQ
Protocol: In vitro Assay of hB2 Receptor Function using Calcium Flux The intracellular calcium flux induced by hB2 receptor activation was analyzed using an hB2 recombinant cell line (CHO-K1) purchased from PerkinElmer (Catalog Number: RBHB2C000EA) on a fluorometric imaging plate reader (FLIPR). […] Culture medium was changed every other day. 24 h prior to the FLIPR assay, the hB2/CHO cells were washed once with PBS (Invitrogen) and 10 mL of Versene (1:5000, Invitrogen, Cat# 15040-066) was added to each flask. After 5 min incubation at 37° C., Versene was removed and cells were detached from the flask and resuspended in culture medium. Cells were counted and 25,000 cells/well were plated in 96-well black-sided clear bottom assay plates (Costar #3904). Cells were incubated in a 37° C. CO2 incubator overnight. The media was aspirated from the cells and replaced with 65 μL of dye-loading buffer. The loading buffer was prepared by diluting a stock solution of 0.5 mM Fluo-4 AM (Molecular Probes, dissolved in DMSO containing 10% [w/v] pluronic acid) to a concentration of 1 μM in Clear Dulbecco's Modified Eagle Medium (DMEM) containing 0.1% BSA, 20 mM HEPES, and 2.5 mM probenecid. The cells were dye-loaded for 1 h at RT. The excess dye was removed by washing the cells 2× with assay buffer. The assay buffer consists of Hank's Balanced Salt Solution (HBSS) containing 20 mM HEPES, 0.1% BSA, and 2.5 mM probenecid. After the wash cycles, a volume of 100 μL was left in each well, and the plate was ready to be assayed in the FLIPR System. […] The cell plate and the compound plates were loaded onto the FLIPR and during the assay, fluorescence readings are taken simultaneously from all 96 wells of the cell plate. Ten 1-second readings were taken to establish a stable baseline for each well, then 25 μL from the B1 antagonist plate was rapidly (50 μL/sec.) added. The fluorescence signal was measured in 1-second (1 min) followed by 6-second (2 min) intervals for a total of 3 min to determine if there is any agonist activity with the compounds.

[2] = cited from earlier work

Substance	IC50 [1]	half-life of BK in plasma [2]
N-((4S)-1-cyclopropyl-3,3-dimethyl-4-piperidinyl)-2-((2R)-1-((4-methylphenyl)-sulfonyl)-3-oxo-1,2,3,4-tetrahydro-2-pyrazinyl)acetamide; and N-((4R)-1-cyclopropyl-3,3-dimethyl-4-piperidinyl)-2-((2R)-1-((4-methylphenyl)-sulfonyl)-3-oxo-1,2,3,4-tetrahydro-2-pyrazinyl)acetamide [T-1-45]	1 nM	
RPPGFSPFR [BK, Bradykinin]		approximately 17 seconds
